Format in all cases: cell-based, influenza A viruses
In one experiment the test system is A/Brazil/11/78 (H1N1). Nature of the experiment: Plaque inhibition assay in MDCK cells. As to conditions: Influenza A virus.
The test system of a further experiment is A/Singapore/1/75 (H2N2). Briefly: microbe, parasite or virus in culture. As to conditions: Influenza A virus, H2N2, MDCK.
The subject of another experiment is A/Beijing/32/92 (H3N2). Nature of the experiment: Plaque inhibition assay in MDCK cells. As to conditions: Influenza A virus.
In another experiment the test system is A/England/939/69. Briefly: Plaque inhibition assay in MDCK cells. As to conditions: Influenza A virus.

In brackets after ≈: the same amount, converted by molar mass.

By IC50 is commonly meant the concentration that gives 50% inhibition. High values mean weaker potency in that assay, low ones greater potency in that assay. Consider `NC12CC3CC(CC(C3)C1)C2` [Amantadine], for which the concentration for half-maximal inhibition (IC50) in the experiment with A/Brazil/11/78 (H1N1) turned out to be 38 µg/mL (≈ 251 µM); in the experiment with A/Singapore/1/75 (H2N2), 11 µg/mL (≈ 72.7 µM); in the experiment on A/Beijing/32/92 (H3N2), 25 µg/mL (≈ 165 µM); in the experiment with A/England/939/69, 21 µg/mL (≈ 139 µM).
Turning to `NC(=O)c1ncn([C@@H]2O[C@H](CO)[C@@H](O)[C@H]2O)n1` [Ribavirin], the IC50 in the experiment with A/Brazil/11/78 (H1N1) is 56 µg/mL (≈ 229 µM); in the experiment with A/Singapore/1/75 (H2N2), 82 µg/mL (≈ 336 µM); with A/Beijing/32/92 (H3N2) it was 90 µg/mL (≈ 369 µM); in the experiment with A/England/939/69, 46 µg/mL (≈ 188 µM).

These data come from patent US6475531B1, “Safe botanical drug for treatment and prevention of influenza and increasing immune function” (priority 2001, dated 2002).
